# In publication PMC8445441, “Elucidating the mechanism by which synthetic helper peptides sensitize Pseudomonas aeruginosa to multiple antibiotics” (PLoS Pathogens, 2021):
# Like-named read-outs stand apart in the source and are kept apart here.
# Experiments:
# P. aeruginosa AUMC-Pa-3 = experiment: microbe, parasite or virus in culture; conditions: strain AUMC-Pa-3; for FICI: antibiotic + D-11 (MICb/MICbc 128/4); for MICa: MIC of the antibiotic: antibiotic alone; for MICa: MIC of the antibiotic / MICac: MIC of the antibiotic in the combination: unit not given; for MICac: MIC of the antibiotic in the combination: with D-11 at MICbc 4
# Method in brief: (§1)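 Triplicate microdilution MICs: MHB, two-fold series, equal-volume inoculum from ~1 × 10^6 CFU/mL suspension, 37 °C, 18 h, lowest concentration lacking visible growth.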
# P. aeruginosa AUMC-Pa-4 = experiment: microbe, parasite or virus in culture; conditions: strain AUMC-Pa-4; for FICI: antibiotic + D-11 (MICb/MICbc 128/4); for MICa: MIC of the antibiotic: antibiotic alone; for MICa: MIC of the antibiotic / MICac: MIC of the antibiotic in the combination: unit not given; for MICac: MIC of the antibiotic in the combination: with D-11 at MICbc 4
# Method in brief: as §1
# P. aeruginosa AUMC-Pa-5 = experiment: microbe, parasite or virus in culture; conditions: strain AUMC-Pa-5; for FICI: antibiotic + D-11 (MICb/MICbc 64/4); for MICa: MIC of the antibiotic: antibiotic alone; for MICa: MIC of the antibiotic / MICac: MIC of the antibiotic in the combination: unit not given; for MICac: MIC of the antibiotic in the combination: with D-11 at MICbc 4
# Method in brief: as §1
# P. aeruginosa AUMC-Pa-6 = experiment: microbe, parasite or virus in culture; conditions: strain AUMC-Pa-6; for FICI: antibiotic + D-11 (MICb/MICbc 64/4); for MICa: MIC of the antibiotic: antibiotic alone; for MICa: MIC of the antibiotic / MICac: MIC of the antibiotic in the combination: unit not given; for MICac: MIC of the antibiotic in the combination: with D-11 at MICbc 4
# Method in brief: as §1
# P. aeruginosa PAO1 = experiment: microbe, parasite or virus in culture; conditions: PAO1; for MIC: Pseudomonas aeruginosa, PAO1, 18 h, read-out: MICa: the MIC of antibiotics, S3 Table, antibiotic alone; for FICI / MICac: the MIC for the antibiotic in the combination: S3 Table
# Method in brief: as §1
# P. aeruginosa ATCC27853 = experiment: microbe, parasite or virus in culture; parameters: MICa: MIC of the antibiotic / MICac: MIC of the antibiotic in the combination: unit not given beside the values; conditions: strain ATCC27853; for FICI: antibiotic + D-11 (MICb/MICbc 32/4); for MICa: MIC of the antibiotic: antibiotic alone; for MICa: MIC of the antibiotic / MICac: MIC of the antibiotic in the combination: unit not given; for MICac: MIC of the antibiotic in the combination: with D-11 at MICbc 4
# Method in brief: as §1
# P. aeruginosa NR-31040 = experiment: microbe, parasite or virus in culture; parameters: MICa: MIC of the antibiotic / MICac: MIC of the antibiotic in the combination: unit not given beside the values; conditions: for MIC: Pseudomonas aeruginosa, NR31040, 18 h, read-out: MICa: MIC of the antibiotic; for FICI / MICac: MIC of the antibiotic in the combination: strain NR-31040; for FICI: antibiotic + D-11 (MICb/MICbc 128/4); for MICac: MIC of the antibiotic in the combination: with D-11 at MICbc 4, unit not given
# Method in brief: as §1
# P. aeruginosa NR-31041 = experiment: microbe, parasite or virus in culture; parameters: MICa: MIC of the antibiotic / MICac: MIC of the antibiotic in the combination: unit not given beside the values; conditions: strain NR-31041; for FICI: antibiotic + D-11 (MICb/MICbc 64/4); for MICa: MIC of the antibiotic: antibiotic alone; for MICa: MIC of the antibiotic / MICac: MIC of the antibiotic in the combination: unit not given; for MICac: MIC of the antibiotic in the combination: with D-11 at MICbc 4
# Method in brief: as §1
# P. aeruginosa PA14 = experiment: microbe, parasite or virus in culture; parameters: MICa: MIC of the antibiotic / MICac: MIC of the antibiotic in the combination: unit not given beside the values; conditions: strain PA14; for FICI: antibiotic + D-11 (MICb/MICbc 128/4); for MICa: MIC of the antibiotic: antibiotic alone; for MICa: MIC of the antibiotic / MICac: MIC of the antibiotic in the combination: unit not given; for MICac: MIC of the antibiotic in the combination: with D-11 at MICbc 4
# Method in brief: as §1
# P. aeruginosa PAK = experiment: microbe, parasite or virus in culture; parameters: MICa: MIC of the antibiotic / MICac: MIC of the antibiotic in the combination: unit not given beside the values; conditions: strain PAK; for FICI: antibiotic + D-11 (MICb/MICbc 64/4); for MICa: MIC of the antibiotic: antibiotic alone; for MICa: MIC of the antibiotic / MICac: MIC of the antibiotic in the combination: unit not given; for MICac: MIC of the antibiotic in the combination: with D-11 at MICbc 4
# Method in brief: as §1
# P. aeruginosa HM-214 = conditions: strain HM-214; antibiotic + D-11 (MICb/MICbc 128/4)
# Method in brief: as §1
# P. aeruginosa AUMC-Pa-1 = conditions: strain AUMC-Pa-1; antibiotic + D-11 (MICb/MICbc 128/4)
# Method in brief: as §1
# P. aeruginosa AUMC-Pa-2 = conditions: strain AUMC-Pa-2; antibiotic + D-11 (MICb/MICbc 64/4)
# Method in brief: as §1
# [1] = test system: clinical P. aeruginosa isolates; experiment: microbe, parasite or virus in culture; conditions: Pseudomonas aeruginosa, 18 h, antibiotic alone
# Method in brief: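 MIC is the lowest drug concentration showing no visible growth after 18 h at 37 °C. Two-fold dilutions in MHB were combined with an equal volume of bacterial suspension (about 1 × 10^6 CFU/mL), following CLSI broth microdilution, in triplicate.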
# [2] = read-out: Antibiotic sensibility (MIC) of clinical P. aeruginosa isolate AUMC-Pa-1, strain AUMC-Pa-1
# [3] = read-out: Antibiotic sensibility (MIC) of clinical P. aeruginosa isolate AUMC-Pa-2, strain AUMC-Pa-2
# [4] = read-out: Antibiotic sensibility (MIC) of clinical P. aeruginosa isolate AUMC-Pa-3, strain AUMC-Pa-3
# [5] = read-out: Antibiotic sensibility (MIC) of clinical P. aeruginosa isolate AUMC-Pa-4, strain AUMC-Pa-4
# [6] = read-out: Antibiotic sensibility (MIC) of clinical P. aeruginosa isolate AUMC-Pa-5, strain AUMC-Pa-5
# [7] = read-out: Antibiotic sensibility (MIC) of clinical P. aeruginosa isolate AUMC-Pa-6, strain AUMC-Pa-6
# [8] = read-out: Antibiotic sensibility (MIC) of clinical P. aeruginosa isolate HM-214, strain HM-214
# [9] = read-out: Antibiotic sensibility (MIC) of clinical P. aeruginosa isolate NR-31040, strain NR-31040
# [10] = read-out: Antibiotic sensibility (MIC) of clinical P. aeruginosa isolate NR-31041, strain NR-31041
structure (smiles),measurement,setting,value
CN(C)c1ccc(O)c2c1C[C@H]1C[C@H]3[C@H](N(C)C)C(O)=C(C(N)=O)C(=O)[C@@]3(O)C(O)=C1C2=O [Minocycline],FICI,P. aeruginosa AUMC-Pa-3,0.156
same,MICa: MIC of the antibiotic,P. aeruginosa AUMC-Pa-3,16
same,MICac: MIC of the antibiotic in the combination,P. aeruginosa AUMC-Pa-3,2
same,FICI,P. aeruginosa AUMC-Pa-4,0.156
same,MICa: MIC of the antibiotic,P. aeruginosa AUMC-Pa-4,16
same,MICac: MIC of the antibiotic in the combination,P. aeruginosa AUMC-Pa-4,2
same,FICI,P. aeruginosa AUMC-Pa-5,1.063
same,MICa: MIC of the antibiotic,P. aeruginosa AUMC-Pa-5,16/16
same,MICac: MIC of the antibiotic in the combination,P. aeruginosa AUMC-Pa-5,16/16
same,FICI,P. aeruginosa AUMC-Pa-6,0.313
same,MICa: MIC of the antibiotic,P. aeruginosa AUMC-Pa-6,16
same,MICac: MIC of the antibiotic in the combination,P. aeruginosa AUMC-Pa-6,4
same,MIC,P. aeruginosa PAO1,16 µM
same,FICI,P. aeruginosa PAO1; antibiotic + 2 μM D-11,0.094
same,FICI,P. aeruginosa PAO1; antibiotic + 4 μM D-11,0.141
same,MICac: the MIC for the antibiotic in the combination,P. aeruginosa PAO1; with 2 μM D-11,0.5 µM
same,MICac: the MIC for the antibiotic in the combination,P. aeruginosa PAO1; with 4 μM D-11,0.25 µM
same,FICI,P. aeruginosa ATCC27853,0.188
same,MICa: MIC of the antibiotic,P. aeruginosa ATCC27853,16
same,MICac: MIC of the antibiotic in the combination,P. aeruginosa ATCC27853,1
same,MIC,P. aeruginosa NR-31040,16 µM
same,FICI,P. aeruginosa NR-31040,0.063
same,MICac: MIC of the antibiotic in the combination,P. aeruginosa NR-31040,0.5
same,FICI,P. aeruginosa NR-31041,0.188
same,MICa: MIC of the antibiotic,P. aeruginosa NR-31041,16
same,MICac: MIC of the antibiotic in the combination,P. aeruginosa NR-31041,2
same,FICI,P. aeruginosa PA14,0.156
same,MICa: MIC of the antibiotic,P. aeruginosa PA14,16
same,MICac: MIC of the antibiotic in the combination,P. aeruginosa PA14,2
same,FICI,P. aeruginosa PAK,0.125
same,MICa: MIC of the antibiotic,P. aeruginosa PAK,16
same,MICac: MIC of the antibiotic in the combination,P. aeruginosa PAK,1
same,FICI,P. aeruginosa HM-214,0.094
same,FICI,P. aeruginosa AUMC-Pa-1,0.094
same,FICI,P. aeruginosa AUMC-Pa-2,0.313
same,MIC,[1]; [2],32 µM
same,MIC,[1]; [3],8 µM
same,MIC,[1]; [4],16 µM
same,MIC,[1]; [5],16 µM
same,MIC,[1]; [6],16 µM
same,MIC,[1]; [7],16 µM
same,MIC,[1]; [8],16 µM
same,MIC,[1]; [9],16 µM
same,MIC,[1]; [10],16 µM
CN(C)[C@@H]1C(O)=C(C(N)=O)C(=O)[C@@]2(O)C(O)=C3C(=O)c4c(O)c(NC(=O)CN5CCCC5)cc(F)c4C[C@H]3C[C@@H]12 [Eravacycline],FICI,P. aeruginosa AUMC-Pa-3,0.156
same,MICa: MIC of the antibiotic,P. aeruginosa AUMC-Pa-3,8
same,MICac: MIC of the antibiotic in the combination,P. aeruginosa AUMC-Pa-3,1
same,FICI,P. aeruginosa AUMC-Pa-4,0.156
same,MICa: MIC of the antibiotic,P. aeruginosa AUMC-Pa-4,16
same,MICac: MIC of the antibiotic in the combination,P. aeruginosa AUMC-Pa-4,2
same,FICI,P. aeruginosa AUMC-Pa-5,1.063
same,MICa: MIC of the antibiotic,P. aeruginosa AUMC-Pa-5,8/8
same,MICac: MIC of the antibiotic in the combination,P. aeruginosa AUMC-Pa-5,8/8
same,FICI,P. aeruginosa AUMC-Pa-6,0.313
same,MICa: MIC of the antibiotic,P. aeruginosa AUMC-Pa-6,8
same,MICac: MIC of the antibiotic in the combination,P. aeruginosa AUMC-Pa-6,2
same,MIC,P. aeruginosa PAO1,4 µM
same,FICI,P. aeruginosa PAO1; antibiotic + 2 μM D-11,0.094
same,MICac: the MIC for the antibiotic in the combination,P. aeruginosa PAO1; with 2 μM D-11,0.125 µM
same,MICac: the MIC for the antibiotic in the combination,P. aeruginosa PAO1; with 4 μM D-11,0.0625 µM
same,FICI,P. aeruginosa ATCC27853,0.250
same,MICa: MIC of the antibiotic,P. aeruginosa ATCC27853,8
same,MICac: MIC of the antibiotic in the combination,P. aeruginosa ATCC27853,1
same,MIC,P. aeruginosa NR-31040,8 µM
same,FICI,P. aeruginosa NR-31040,0.094
same,MICac: MIC of the antibiotic in the combination,P. aeruginosa NR-31040,0.5
same,FICI,P. aeruginosa NR-31041,0.188
same,MICa: MIC of the antibiotic,P. aeruginosa NR-31041,8
same,MICac: MIC of the antibiotic in the combination,P. aeruginosa NR-31041,1
same,FICI,P. aeruginosa PA14,0.156
same,MICa: MIC of the antibiotic,P. aeruginosa PA14,8
same,MICac: MIC of the antibiotic in the combination,P. aeruginosa PA14,1
same,FICI,P. aeruginosa PAK,0.188
same,MICa: MIC of the antibiotic,P. aeruginosa PAK,8
same,MICac: MIC of the antibiotic in the combination,P. aeruginosa PAK,1
same,FICI,P. aeruginosa HM-214,0.281
same,FICI,P. aeruginosa AUMC-Pa-1,0.156
same,FICI,P. aeruginosa AUMC-Pa-2,0.313
same,MIC,[1]; [2],16 µM
same,MIC,[1]; [3],8 µM
same,MIC,[1]; [4],8 µM
same,MIC,[1]; [5],16 µM
same,MIC,[1]; [6],8 µM
same,MIC,[1]; [7],8 µM
same,MIC,[1]; [8],8 µM
same,MIC,[1]; [9],8 µM
same,MIC,[1]; [10],8 µM
